Source: patent US20240066131A1 (Protagonist Therapeutics, Inc., priority 2020, published 2024)
Starred links: 1 amine or outer side, 2 acyl side, 3 side chain; linkers in the order of their positions; H or OH if unused. Non-standard residues stand in square brackets, D forms with d. Residues, ends and D or L forms follow the SMILES beside them. Groups on a side chain read outwards from the residue. *: point of attachment. Ala(1H-tetrazol-5-yl) = N[C@@H](Cc1nnn[nH]1)C(=O)O; Gly(N-CH2CH2-imidazol-4-yl) = O=C(O)CNCCc1c[nH]cn1; X14 = O=C(CN(CCC(c1ccccc1)c1ccccc1)[*:1])[*:2]; C18 diacid = O=C(O)CCCCCCCCCCCCCCCCC(=O)*; X8 = O=C([C@H](CCc1nn[nH]n1)N[*:1])[*:2]; Dip = N[C@H](C(=O)O)C(c1ccccc1)c1ccccc1; γGlu = O=C(O)[C@H](CCC(=O)[*:2])N[*:1]; His(τ-Me) = Cn1cnc(C[C@H](N)C(=O)O)c1; Gly(NCH2CH2Ph) = O=C(O)CNCCc1ccccc1; Palmitoyl = CCCCCCCCCCCCCCCC(=O)*; Myristoyl = CCCCCCCCCCCCCC(=O)*; β3hF = N[C@H](CC(=O)O)Cc1ccccc1; NMeL = CN[C@@H](CC(C)C)C(=O)O; Lauroyl = CCCCCCCCCCCC(=O)*; Isovaleryl = CC(C)CC(=O)*; AEEA = NCCOCCOCC(=O)O; NHBn = c1ccc(CN*)cc1; Ahx = NCCCCCC(=O)O

Each compound was assayed against T1, ferroportin (Homo sapiens, UniProt Q9NP59) (assay: FPN activity assay: internalization/degradation of ferroportin-GFP in stably transfected HEK293 cells (loss of GFP fluorescence)). Conditions: Table 6A; read-out: FPN EC50.
T1 sequence (Q9NP59 1-571): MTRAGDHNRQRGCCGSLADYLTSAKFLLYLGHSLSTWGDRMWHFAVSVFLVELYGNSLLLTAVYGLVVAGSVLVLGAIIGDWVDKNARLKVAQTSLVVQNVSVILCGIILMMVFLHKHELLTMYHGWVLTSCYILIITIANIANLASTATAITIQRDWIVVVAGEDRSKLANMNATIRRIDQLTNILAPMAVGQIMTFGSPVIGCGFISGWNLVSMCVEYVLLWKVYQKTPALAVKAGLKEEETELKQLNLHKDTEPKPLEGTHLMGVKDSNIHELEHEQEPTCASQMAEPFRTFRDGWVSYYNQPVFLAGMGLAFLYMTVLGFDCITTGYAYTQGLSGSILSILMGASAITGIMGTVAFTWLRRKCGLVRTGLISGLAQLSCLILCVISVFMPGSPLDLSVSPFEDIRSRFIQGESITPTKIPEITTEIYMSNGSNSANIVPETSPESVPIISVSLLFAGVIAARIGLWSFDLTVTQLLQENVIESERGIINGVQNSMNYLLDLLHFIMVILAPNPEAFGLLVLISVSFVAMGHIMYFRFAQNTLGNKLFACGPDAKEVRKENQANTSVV
Assay type: cell-based
Protocol: Following internalization, the ferroporin protein is degraded.
A retro inverse peptide is a peptide with a reversed sequence in all D amino acids. An example is that Hy-Glu-Thr-His-NH2 becomes Hy-DHis-DThr-DGlu-NH2. The EC50 of these reference compounds for ferroportin internalization/degradation was determined according to the FPN activity assay described above. These peptides served as control standards.

For `CCCCCCCCCCCCCCCC(=O)NCCCCCC(=O)NCCCC[C@H](NC(=O)[C@@H](NC(=O)[C@H](CC(C)C)NC(=O)[C@@H]1CCCN1C(=O)[C@@H](NC(=O)[C@H](Cc1c[nH]cn1)NC(=O)[C@@H](NC(=O)[C@H](CCC(=O)O)NC(=O)CC(C)C)[C@@H](C)O)C(c1ccccc1)c1ccccc1)[C@@H](C)CC)C(=O)N(C)[C@@H](CC(C)C)C(N)=O` [compound 140] (Isovaleryl-ETH[Dip]PLIK([Ahx-Palmitoyl])[NMeL]-NH2), which DC50 is on record?
The DC50 was 32.4 nM.

`CC[C@H](C)[C@H](NC(=O)[C@H](C)NC(=O)[C@@H]1CCCN1C(=O)[C@@H](NC(=O)[C@H](Cc1cn(C)cn1)NC(=O)[C@@H](NC(=O)[C@H](CCC(=O)O)NC(=O)CC(C)C)[C@@H](C)O)C(c1ccccc1)c1ccccc1)C(=O)N[C@@H](CCCCNC(C)=O)C(=O)N[C@H](CC(=O)N[C@H](CCCCN)C(=O)N[C@@H](C)C(N)=O)Cc1ccccc1` [compound 36] (Isovaleryl-ET[His(τ-Me)][Dip]PAIK(Ac)[β3hF][dK]A-NH2) was tested. Which DC50 did it give?
Its DC50 is > 3000 nM.

Which DC50 does the source give for `CCCCCCCCCCCCCCCC(=O)NCCCCCC(=O)NCCCC[C@H](NC(=O)[C@@H](NC(=O)[C@H](C)NC(=O)[C@@H]1CCCN1C(=O)[C@@H](NC(=O)[C@H](Cc1c[nH]cn1)NC(=O)[C@@H](NC(=O)[C@H](CCC(=O)O)NC(=O)CC(C)C)[C@@H](C)O)C(c1ccccc1)c1ccccc1)[C@@H](C)CC)C(=O)N[C@H](CC(N)=O)Cc1ccccc1` [SEQ ID No. 9, Isovaleric Acid-E-T-H-[Dpa]-P-A-I-[Lys(Ahx_Palm)]-[bhPhe]-NH2] (Isovaleryl-ETH[Dip]PAIK([Ahx-Palmitoyl])[β3hF]-NH2) here?
Its DC50 is 31.9 nM.

With `CC[C@H](C)[C@H](NC(=O)[C@H](C)NC(=O)[C@@H]1CCCN1C(=O)[C@@H](NC(=O)[C@H](Cc1cn(C)cn1)NC(=O)[C@@H](NC(=O)[C@H](CCc1nn[nH]n1)NC(=O)CC(C)C)[C@@H](C)O)C(c1ccccc1)c1ccccc1)C(=O)N[C@@H](CCCCNC(C)=O)C(=O)N[C@H](CC(=O)N[C@H](CCCCN)C(N)=O)Cc1ccccc1` [compound 41] (Isovaleryl-[X8]T[His(τ-Me)][Dip]PAIK(Ac)[β3hF][dK]-NH2) as the compound, how does the DC50 read?
The DC50 was > 3000 nM.

For `CCCCCCCCCCCCCCCC(=O)NCCCCCC(=O)NCCCC[C@H](NC(=O)[C@@H](NC(=O)[C@H](C)NC(=O)[C@@H]1CCCN1C(=O)[C@@H](NC(=O)CN(CCc1c[nH]cn1)C(=O)[C@@H](NC(=O)[C@H](CCC(=O)O)NC(=O)CC(C)C)[C@@H](C)O)C(c1ccccc1)c1ccccc1)[C@@H](C)CC)C(=O)N[C@H](CC(N)=O)Cc1ccccc1` [compound 88] (Isovaleryl-ET[Gly(N-CH2CH2-imidazol-4-yl)][Dip]PAIK([Ahx-Palmitoyl])[β3hF]-NH2), which DC50 is on record?
The DC50 was > 3000 nM.

`CCCCCCCCCCCCCCCC(=O)NCCCCCC(=O)NCCOCCOCC(=O)NCCOCCOCC(=O)NCCCC[C@H](NC(=O)[C@@H](NC(=O)[C@H](C)NC(=O)[C@@H]1CCCN1C(=O)[C@@H](NC(=O)[C@H](Cc1c[nH]cn1)NC(=O)[C@@H](NC(=O)[C@H](CCC(=O)O)NC(=O)CC(C)C)[C@@H](C)O)C(c1ccccc1)c1ccccc1)[C@@H](C)CC)C(=O)N[C@H](CC(N)=O)Cc1ccccc1` [compound 101] (Isovaleryl-ETH[Dip]PAIK([AEEA-AEEA-Ahx-Palmitoyl])[β3hF]-NH2) was tested. Which DC50 did it give?
The DC50 was 63.5 nM.

How did the DC50 turn out when `CC[C@H](C)[C@H](NC(=O)[C@H](C)NC(=O)[C@@H]1CCCN1C(=O)[C@@H](NC(=O)[C@H](Cc1c[nH]cn1)NC(=O)[C@@H](NC(=O)[C@H](CCC(=O)O)NC(=O)CC(C)C)[C@@H](C)O)C(c1ccccc1)c1ccccc1)C(=O)N[C@@H](CCCCNC(C)=O)C(N)=O` [compound 12] (Isovaleryl-ETH[Dip]PAIK(Ac)-NH2) was run?
Its DC50 is 1040 nM.

For `CCCCCCCCCCCCCCCC(=O)NCCCCCC(=O)NCCCC[C@H](NC(=O)[C@@H](NC(=O)[C@@H](NC(=O)[C@@H]1CCCN1C(=O)[C@@H](NC(=O)[C@H](Cc1c[nH]cn1)NC(=O)[C@@H](NC(=O)[C@H](Cc1nn[nH]n1)NC(=O)CC(C)C)[C@@H](C)O)C(c1ccccc1)c1ccccc1)[C@@H](C)CC)[C@@H](C)CC)C(=O)N[C@H](CC(N)=O)Cc1ccccc1` [compound 113] (Isovaleryl-[Ala(1H-tetrazol-5-yl)]TH[Dip]PIIK([Ahx-Palmitoyl])[β3hF]-NH2), which DC50 is on record?
Its DC50 is 86.8 nM.

For `CCCCCCCCCCCC(=O)NCCCCCC(=O)NCCCC[C@H](NC(=O)[C@@H](NC(=O)[C@H](C)NC(=O)[C@@H]1CCCN1C(=O)[C@@H](NC(=O)[C@H](Cc1c[nH]cn1)NC(=O)[C@@H](NC(=O)[C@H](CCC(=O)O)NC(=O)CC(C)C)[C@@H](C)O)C(c1ccccc1)c1ccccc1)[C@@H](C)CC)C(=O)N[C@H](CC(N)=O)Cc1ccccc1` [compound 105] (Isovaleryl-ETH[Dip]PAIK([Ahx-Lauroyl])[β3hF]-NH2), which DC50 is on record?
The DC50 was 109 nM.

With `CCCCCCCCCCCCCCCC(=O)NCCCCCC(=O)NCCCC[C@H](NC(=O)[C@@H](NC(=O)[C@H](C)NC(=O)[C@@H]1CCCN1C(=O)[C@@H](NC(=O)[C@H](Cc1c[nH]cn1)NC(=O)[C@@H](NC(=O)[C@H](CCC(=O)O)NC(=O)CC(C)C)[C@@H](C)O)C(c1ccccc1)c1ccccc1)[C@@H](C)CC)C(=O)N(CCc1ccccc1)CC(N)=O` [compound 93] (Isovaleryl-ETH[Dip]PAIK([Ahx-Palmitoyl])[Gly(NCH2CH2Ph)]-NH2) as the compound, how does the DC50 read?
Its DC50 is 31.9 nM.

Same assay, conditions: ferroportin-GFP HEK293 cells, compound incubated at least 18 hours; read-out: FPN IC50

Which DC50 does the source give for `CCCCCCCCCCCCCCCC(=O)NCCCCCC(=O)NCCCC[C@H](NC(=O)[C@@H](NC(=O)[C@H](CC(C)C)NC(=O)[C@@H]1CCCN1C(=O)[C@@H](NC(=O)[C@H](Cc1c[nH]cn1)NC(=O)[C@@H](NC(=O)[C@H](CCC(=O)O)NC(=O)CC(C)C)[C@@H](C)O)C(c1ccccc1)c1ccccc1)[C@@H](C)CC)C(=O)N[C@@H](CC(C)C)C(N)=O` [compound 205] (Isovaleryl-ETH[Dip]PLIK([Ahx-Palmitoyl])L-NH2) here?
Its DC50 is 37.4 nM.

`CC(C)CC(=O)N[C@@H](CC(C)C)C(=O)N[C@H](C(=O)N[C@@H](Cc1c[nH]cn1)C(=O)N[C@H](C(=O)N[C@@H](CCCCNC(=O)COCCOCCNC(=O)COCCOCCNC(=O)CC[C@H](NC(=O)CCCCCCCCCCCCCCCCC(=O)O)C(=O)O)C(=O)NCc1ccccc1)C(c1ccccc1)c1ccccc1)[C@@H](C)O` [compound 227] (Isovaleryl-LTH[Dip]K([AEEA-AEEA-γGlu-C18 diacid])-NHBn) was tested. Which DC50 did it give?
Its DC50 is > 3000 nM.

For `CCCCCCCCCCCCCCCC(=O)NCCCCCC(=O)NCCCC[C@H](NC(C)=O)C(=O)N[C@H](C(=O)N[C@@H](Cc1c[nH]cn1)C(=O)N[C@H](C(=O)N1CCC[C@H]1C(=O)N[C@@H](C)C(=O)N[C@H](C(=O)N[C@H](CCCCN)C(=O)N[C@H](CC(N)=O)Cc1ccccc1)[C@@H](C)CC)C(c1ccccc1)c1ccccc1)[C@@H](C)O` [compound 201] (Ac-K([Ahx-Palmitoyl])TH[Dip]PAI[dK][β3hF]-NH2), which DC50 is on record?
The DC50 was > 3000 nM.

How did the DC50 turn out when `CCCCCCCCCCCCCC(=O)NCCCCCC(=O)NCCCC[C@H](NC(=O)[C@@H](NC(=O)[C@H](C)NC(=O)[C@@H]1CCCN1C(=O)[C@H](Cc1ccccc1)NC(=O)[C@H](Cc1c[nH]cn1)NC(=O)[C@@H](NC(=O)[C@H](CCC(=O)O)NC(=O)CC(C)C)[C@@H](C)O)[C@@H](C)CC)C(=O)N[C@@H](Cc1ccccc1)C(=O)N[C@@H](CCC(=O)O)C(=O)N1CCC[C@H]1C(=O)N[C@@H](CCCNC(=N)N)C(=O)N[C@@H](CO)C(=O)N[C@@H](CCCCN)C(=O)NCC(=O)N[C@@H](C)C(=O)N[C@H](CCCCN)C(N)=O` [compound 245] (Isovaleryl-ETHFPAIK([Ahx-Myristoyl])FEPRSKGA[dK]-NH2) was run?
The DC50 was 1160 nM.

For `CCCCCCCCCCCC(=O)NCCCCCC(=O)NCCCC[C@H](NC(=O)[C@@H](NC(=O)[C@H](C)NC(=O)[C@@H]1CCCN1C(=O)[C@H](Cc1ccccc1)NC(=O)[C@H](Cc1c[nH]cn1)NC(=O)[C@@H](NC(=O)[C@H](CCC(=O)O)NC(=O)CC(C)C)[C@@H](C)O)[C@@H](C)CC)C(=O)N[C@@H](Cc1ccccc1)C(=O)N[C@@H](CCC(=O)O)C(=O)N1CCC[C@H]1C(=O)N[C@@H](CCCNC(=N)N)C(=O)N[C@@H](CO)C(=O)N[C@@H](CCCCN)C(=O)NCC(=O)N[C@@H](C)C(=O)N[C@@H](CCCCN)C(N)=O` [compound 243] (Isovaleryl-ETHFPAIK([Ahx-Lauroyl])FEPRSKGAK-NH2), which DC50 is on record?
The DC50 was 1070 nM.

How did the DC50 turn out when `CC[C@H](C)[C@H](NC(=O)[C@H](C)NC(=O)[C@@H]1CCCN1C(=O)[C@@H](NC(=O)[C@H](Cc1c[nH]cn1)NC(=O)[C@@H](NC(=O)[C@H](CCCCNC(=O)COCCOCCNC(=O)COCCOCCNC(=O)CCCCCNC(=O)CCCCCCCCCCCCCCCCC(=O)O)NC(C)=O)[C@@H](C)O)C(c1ccccc1)c1ccccc1)C(=O)N[C@H](CCCCN)C(=O)N[C@H](CC(N)=O)Cc1ccccc1` [compound 234] (Ac-K([AEEA-AEEA-Ahx-C18 diacid])TH[Dip]PAI[dK][β3hF]-NH2) was run?
The DC50 was > 3000 nM.

Same assay, conditions: read-out: FPN EC50; Table 6A

How did the DC50 turn out when `CCCCCCCCCCCCCCCC(=O)NCCCCCC(=O)NCCCC[C@H](NC(=O)[C@@H](NC(=O)[C@H](C)NC(=O)[C@@H]1CCCN1C(=O)CN(CCC(c1ccccc1)c1ccccc1)C(=O)[C@H](Cc1c[nH]cn1)NC(=O)[C@@H](NC(=O)[C@H](CCC(=O)O)NC(=O)CC(C)C)[C@@H](C)O)[C@@H](C)CC)C(=O)N[C@H](CC(N)=O)Cc1ccccc1` [compound 89] (Isovaleryl-ETH[X14]PAIK([Ahx-Palmitoyl])[β3hF]-NH2) was run?
Its DC50 is > 3000 nM.
